Assay results: patent publication US8329950B2, “Process for preparation of trans 4-(3,4-Dichlorophenyl)-1,2,3,4-tetrahydro-1Napthalenamine” (Sunovion Pharmaceuticals Inc., priority 2005, dated 2012)
pIC50: −log10 of the molar value. “And” between values parts separate entries of the source, which are not always exact repeats. Identical values can stand only once.

Experiments:
[1] = target: T1, functional uptake of serotonin (5-HT) (Rattus norvegicus, UniProt P31652); assay: Serotonin functional uptake assay in rat synaptosomes; format: biochemical; settings: Table 6; tested initially at 10 μM
T1 construct: synaptosomes isolated in a 0.32 M sucrose buffer from a male Wistar rat cortex; from tissue; host or cells: male Wistar rat cortex (whole brain) synaptosomes
T1 sequence (P31652 whole entry): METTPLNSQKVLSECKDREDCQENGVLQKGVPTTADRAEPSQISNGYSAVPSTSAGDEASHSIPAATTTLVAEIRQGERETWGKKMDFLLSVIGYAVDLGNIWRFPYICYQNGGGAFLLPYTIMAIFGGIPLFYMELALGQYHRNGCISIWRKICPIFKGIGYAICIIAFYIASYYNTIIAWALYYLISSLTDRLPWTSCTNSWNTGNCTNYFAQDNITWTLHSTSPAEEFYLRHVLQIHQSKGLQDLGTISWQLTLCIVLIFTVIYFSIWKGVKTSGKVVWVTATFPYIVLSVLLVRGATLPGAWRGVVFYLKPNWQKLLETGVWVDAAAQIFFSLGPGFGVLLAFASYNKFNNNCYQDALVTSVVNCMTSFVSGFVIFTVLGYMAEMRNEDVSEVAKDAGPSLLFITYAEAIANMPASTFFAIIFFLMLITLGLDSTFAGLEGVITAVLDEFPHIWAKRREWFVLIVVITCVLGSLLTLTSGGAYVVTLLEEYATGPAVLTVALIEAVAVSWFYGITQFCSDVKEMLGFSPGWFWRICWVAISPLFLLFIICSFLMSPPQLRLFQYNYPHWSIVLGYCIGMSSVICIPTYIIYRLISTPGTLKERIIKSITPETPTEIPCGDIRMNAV
Method: Characterization of serotonin uptake is performed using synaptosomes isolated in a 0.32 M sucrose buffer from a male Wistar rat cortex. The uptake of radiolabelled serotonin by synaptosomes (100 μg of proteins/point) is allowed by incubating them in a deep well for 15 minutes at 37° C. in presence of test compounds and [3H]5-hydroxytryptamin (0.1 μCi/point).
Synaptosomes and [^3H]5-hydroxytryptamine are prepared in a Krebs buffer pH 7.4 containing 25 mM NaHCO3, 11 mM glucose and 50 μM ascorbic acid. This incubation buffer is oxygenated during 5 minutes before incubation. Basal control is incubated for 15 minutes at 4° C. in order to avoid any uptake. Following this incubation the uptake is stopped by filtration through an “unifilter 96-wells GFB “Packard plate washed with Krebs buffer containing 25 mM NaHCO3 in order to eliminate the free [^3H]5-hydroxytryptamine. The radioactivity associated to the synaptosomes retained onto the unifilter corresponding to the uptake is then measured with a microplate scintillation counter Topcount, Packard using a scintillation liquid microscint 0, Packard.

[2] = target: T2, functional uptake of norepinephrine (NE) (Rattus norvegicus, UniProt Q63380); assay: biochemical
T2 construct: synaptosomes isolated at Cerep in a 0.32 M sucrose buffer from a male Wistar rat hypothalamus; tissue Cerep; host or cells: male Wistar rat hypothalamus synaptosomes
T2 sequence (Q63380 1-617): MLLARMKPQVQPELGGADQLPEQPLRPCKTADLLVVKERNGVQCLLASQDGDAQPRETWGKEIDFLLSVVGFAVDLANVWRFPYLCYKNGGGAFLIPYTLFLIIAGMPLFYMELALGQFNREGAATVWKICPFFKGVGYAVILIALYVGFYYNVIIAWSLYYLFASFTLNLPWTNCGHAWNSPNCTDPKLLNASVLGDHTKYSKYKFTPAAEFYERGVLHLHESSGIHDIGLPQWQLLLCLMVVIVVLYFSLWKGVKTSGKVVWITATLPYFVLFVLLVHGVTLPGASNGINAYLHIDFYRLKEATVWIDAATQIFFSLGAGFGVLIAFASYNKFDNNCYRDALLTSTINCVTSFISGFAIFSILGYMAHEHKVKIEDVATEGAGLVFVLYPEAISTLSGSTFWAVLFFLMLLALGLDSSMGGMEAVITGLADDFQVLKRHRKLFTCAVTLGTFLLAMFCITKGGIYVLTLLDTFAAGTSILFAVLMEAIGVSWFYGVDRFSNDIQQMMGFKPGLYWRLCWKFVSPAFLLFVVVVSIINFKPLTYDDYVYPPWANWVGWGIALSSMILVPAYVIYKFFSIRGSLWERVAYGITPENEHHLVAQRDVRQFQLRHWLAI
Method: Characterization of norepinephrine uptake is performed using synaptosomes isolated at Cerep in a 0.32 M sucrose buffer from a male Wistar rat hypothalamus. The uptake of radiolabeled norepinephrine by synaptosomes (100 μg of proteins/point) is allowed by incubating them in a deep well for 20 minutes at 37° C. in presence of test compounds and [^3H]-norepinephrine (0.1 μCi/point).
Synaptosomes and [^3H]-norepinephrine are prepared in a Krebs buffer pH 7.4 containing 25 mM NaHCO3, 11 mM glucose and 50 μM ascorbic acid. This incubation buffer is oxygenated during 5 minutes before incubation. Basal control is incubated for 20 minutes at 4° C. in order to avoid any uptake. Following this incubation the uptake is stopped by filtration through an “unifilter 96-wells GFB “Packard plate washed with Krebs buffer containing 25 mM NaHCO3 in order to eliminate the free [^3H]-norepinephrine. The radioactivity associated to the synaptosomes retained onto the unifilter corresponding to the uptake is then measured with a microplate scintillation counter Topcount, Packard using a scintillation liquid microscint 0, Packard.

[3] = target: T3, functional uptake of dopamine (DA) (Rattus norvegicus, UniProt P23977); assay: Dopamine functional uptake assay in rat striatum synaptosomes; format: biochemical; settings: for inhibition of DA uptake: tested initially at 10 μM
T3 construct: synaptosomes isolated at Cerep in a 0.32 M sucrose buffer from a male Wistar rat striatum; tissue Cerep; host or cells: male Wistar rat striatum synaptosomes
T3 sequence (P23977 whole entry): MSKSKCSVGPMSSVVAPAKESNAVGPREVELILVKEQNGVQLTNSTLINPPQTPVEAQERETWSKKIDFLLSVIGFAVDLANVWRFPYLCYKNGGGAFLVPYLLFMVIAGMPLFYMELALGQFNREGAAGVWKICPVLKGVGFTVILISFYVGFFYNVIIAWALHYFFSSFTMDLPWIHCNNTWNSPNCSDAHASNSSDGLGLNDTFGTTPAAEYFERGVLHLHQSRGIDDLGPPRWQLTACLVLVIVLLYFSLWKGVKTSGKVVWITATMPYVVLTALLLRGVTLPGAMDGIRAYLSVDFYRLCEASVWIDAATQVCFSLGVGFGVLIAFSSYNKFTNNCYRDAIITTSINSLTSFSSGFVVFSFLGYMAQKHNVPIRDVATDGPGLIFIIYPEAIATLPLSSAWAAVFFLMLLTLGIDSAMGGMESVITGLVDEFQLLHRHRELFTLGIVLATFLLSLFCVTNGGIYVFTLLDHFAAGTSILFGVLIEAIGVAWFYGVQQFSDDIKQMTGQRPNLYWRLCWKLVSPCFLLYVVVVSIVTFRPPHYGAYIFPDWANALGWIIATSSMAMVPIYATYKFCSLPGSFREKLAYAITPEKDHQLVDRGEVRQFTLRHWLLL
Method: Characterization of dopamine uptake is performed using synaptosomes isolated at Cerep in a 0.32 M sucrose buffer from a male Wistar rat striatum. The uptake of radiolabelled dopamine by synaptosomes (20 μg of proteins/point) is allowed by incubating them in a deep well for 15 minutes at 37° C. in presence of test compounds and [^3H]-dopamine (0.1 μCi/point).
Synaptosomes and [^3H]-dopamine are prepared in a Krebs buffer pH 7.4 containing 25 mM NaHCO3, 11 mM glucose and 50 μM ascorbic acid. This incubation buffer is oxygenated during 5 minutes before incubation. Basal control is incubated for 15 minutes at 4° C. in order to avoid any uptake. Following this incubation the uptake is stopped by filtration through an “unifilter 96-wells GFB “Packard plate washed with Krebs buffer containing 25 mM NaHCO3 in order to eliminate the free [^3H]-dopamine. The radioactivity associated to the synaptosomes retained onto the unifilter corresponding to the uptake is then measured with a microplate scintillation counter Topcount, Packard using a scintillation liquid microscint 0, Packard.

mice = assay: Behavioral Despair Test (Porsolt swim test) in mice; format: in vivo; settings: for Immobility Duration, Mean: N = 10

Fc1ccc(C(OCCN2CCN(CCCc3ccccc3)CC2)c2ccc(F)cc2)cc1 [GBR 12909]
inhibition of 5-HT uptake [1]: — (— <50% inhibition)
inhibition of NE uptake ([2]; Table 6, tested initially at 10 μM): — (— <50% inhibition)

CN(C)CCCN1c2ccccc2CCc2ccccc21 [imipramine]
inhibition at 10 µM ([2]; read-out: inhibition of NE uptake): < 50%
inhibition of DA uptake ([3]; Table 6): — (— <50% inhibition)
inhibition at 10 µM ([3]; read-out: inhibition of DA uptake): < 50%
Immobility Duration, individual mice (mice; 10 mg/kg): 89 s and 85 s and 73 s and 37 s and 74 s and 95 s and 5 s and 33 s
Immobility Duration, Mean (mice; 10 mg/kg): 58 s

N[C@@H]1CC[C@@H](c2ccc(Cl)c(Cl)c2)c2ccccc21 (relative stereo) [P + Q, trans 4-(3,4-dichlorophenyl)-1,2,3,4-tetrahydro-1-napthalenamine]
pIC50 ([2]; Table 6, rat synaptosomes): 8.06
pIC50 ([3]; Table 6, rat synaptosomes): 8.15

N[C@@H]1CC[C@@H](c2ccc(Cl)c(Cl)c2)c2ccccc21 [P, (1R,4S)-trans 4-(3,4-dichlorophenyl)-1,2,3,4-tetrahydro-1-napthalenamine]
Immobility Duration, individual mice (mice; 0.03 mg/kg intraperitoneal): 129 s and 99 s and 107 s and 159 s and 102 s and 115 s and 122 s and 128 s and 120 s and 96 s
Immobility Duration, Mean (mice; 0.03 mg/kg intraperitoneal): 118 s
Immobility Duration, individual mice (mice; 0.1 mg/kg intraperitoneal): 100 s and 103 s and 76 s and 109 s and 56 s and 98 s and 62 s and 119 s and 96 s and 85 s
Immobility Duration, Mean (mice; 0.1 mg/kg intraperitoneal): 90 s
Immobility Duration, individual mice (mice; 0.3 mg/kg intraperitoneal): 93 s and 23 s and 102 s and 110 s and 106 s and 98 s and 120 s and 114 s and 109 s and 115 s
Immobility Duration, Mean (mice; 0.3 mg/kg intraperitoneal): 99 s
Immobility Duration, individual mice (mice; 1 mg/kg intraperitoneal): 34 sec and 51 sec (2×) and 35 sec and 19 sec and 81 sec and 50 sec and 29 sec and 66 sec and 87 sec
Immobility Duration, Mean (mice; 1 mg/kg intraperitoneal): 50 s
Immobility Duration, individual mice (mice; 3 mg/kg intraperitoneal): 3 sec and 17 sec and 5 sec and 0 sec (3×) and 40 sec and 26 sec and 12 sec and 49 sec
Immobility Duration, Mean (mice; 3 mg/kg intraperitoneal): 15 s

CNCCCC1c2ccccc2C=Cc2ccccc21 [protriptyline]
inhibition of DA uptake ([3]; Table 6): — (— <50% inhibition)
